Experiments:
CYP2C8 = target: T1, CYP2C8 (Homo sapiens, UniProt P10632); assay: CYP inhibition assay, CYP2C8; assay type: in vitro ADME
T1 sequence (P10632 1-490): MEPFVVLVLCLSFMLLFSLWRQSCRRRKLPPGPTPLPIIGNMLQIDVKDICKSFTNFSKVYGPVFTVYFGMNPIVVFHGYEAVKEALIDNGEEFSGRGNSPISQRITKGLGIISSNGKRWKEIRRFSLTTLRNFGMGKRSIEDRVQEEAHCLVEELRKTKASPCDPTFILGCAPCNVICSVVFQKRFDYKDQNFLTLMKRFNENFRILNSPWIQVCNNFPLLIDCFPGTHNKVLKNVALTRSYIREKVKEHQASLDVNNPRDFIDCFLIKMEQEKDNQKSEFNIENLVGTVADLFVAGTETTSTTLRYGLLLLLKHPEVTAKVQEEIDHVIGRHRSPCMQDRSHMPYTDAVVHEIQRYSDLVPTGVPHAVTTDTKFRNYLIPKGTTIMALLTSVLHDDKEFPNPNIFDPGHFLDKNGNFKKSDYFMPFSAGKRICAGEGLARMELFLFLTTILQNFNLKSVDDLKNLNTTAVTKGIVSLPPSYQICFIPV
From the text: (§1) Cytochrome P450s (CYPs) are a family of enzymes that play a primary role in the metabolism of a wide variety of drugs. 2R,6R-hydroxynorketamine was investigated for its potential to inhibit the action of 7 key CYP enzymes using an inhibition assay measuring reduction in the formation of metabolites compared to control.

CYP2B6 = target: T2, CYP2B6 (Homo sapiens, UniProt P20813); assay: CYP inhibition assay, CYP2B6; assay type: in vitro ADME
T2 sequence (P20813 1-491): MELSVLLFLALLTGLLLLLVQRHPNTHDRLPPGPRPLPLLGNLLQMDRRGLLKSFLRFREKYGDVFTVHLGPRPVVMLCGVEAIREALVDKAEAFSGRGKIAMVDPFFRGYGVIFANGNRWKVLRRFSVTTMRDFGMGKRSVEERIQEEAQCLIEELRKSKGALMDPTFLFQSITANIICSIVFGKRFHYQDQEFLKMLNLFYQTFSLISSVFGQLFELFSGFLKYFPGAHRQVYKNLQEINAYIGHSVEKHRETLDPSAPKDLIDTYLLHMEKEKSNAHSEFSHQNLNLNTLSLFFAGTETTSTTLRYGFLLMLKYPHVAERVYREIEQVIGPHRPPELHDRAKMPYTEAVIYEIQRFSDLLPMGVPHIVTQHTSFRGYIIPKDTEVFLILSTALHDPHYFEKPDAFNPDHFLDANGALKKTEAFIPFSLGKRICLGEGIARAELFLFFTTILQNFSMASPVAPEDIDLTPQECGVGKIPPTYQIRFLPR
From the text: as §1

`N[C@@]1(c2ccccc2Cl)CCC[C@@H](O)C1=O` [2R,6R-hydroxynorketamine] was tested, and the “inhibition of CYP2C8” value (CYP2C8) was “did not inhibit”, the inhibition at 0.4 µM (CYP2C8; human, 0.4 μM) was 5.63% and the inhibition at 1 µM (CYP2C8; human, 1 μM) was 4.91%. The inhibition at 4 µM (CYP2C8; human, 4 μM) was 12.5%, the inhibition at 10 µM (CYP2C8; human, 10 μM) was 8.33% and the inhibition at 40 µM (CYP2C8; human, 40 μM) was 8.35%. The inhibition at 100 µM (CYP2C8; human, 100 μM) was 2.08%, the “inhibition of CYP2B6” value (CYP2B6) was “did not inhibit” and the inhibition at 0.4 µM (CYP2B6; human, 0.4 μM) was 6.03%. It also gave an inhibition at 1 µM (CYP2B6; human, 1 μM) of 10.1%, an inhibition at 4 µM (CYP2B6; human, 4 μM) of 10.6% and an inhibition at 10 µM (CYP2B6; human, 10 μM) of 14.4%. The inhibition at 40 µM (CYP2B6; human, 40 μM) was 14.8% and the inhibition at 100 µM (CYP2B6; human, 100 μM) was 16.7%.

Source: US20190380978A1, “SOLID ORAL DOSAGE FORMS OF 2R,6R-HYDROXYNORKETAMINE OR DERIVATIVES THEREOF” (priority 2016, published 2019)
